Source: patent US20160257697A1, “THIOPHENE-SUBSTITUTED TETRACYCLIC COMPOUNDS AND METHODS OFUSE THEREOF FOR THE TREATMENT OF VIRAL DISEASES” (priority 2013, published 2016)
Like-named read-outs stand apart in the source and are kept apart here.

Experiments:
Assay in all cases: microbe, parasite or virus in culture
Type in all cases: cell-based, Hepatitis C virus (HCV)
HCV replicon 1B = details: Replicon Assay B
Procedure: In an alternate assay (“Replicon Assay B”), 1000 cells were seeded per well in a 384-well collagen coated black plate from Greiner bio-one (Cat #781946) in 5% FBS. Inhibitors of this invention were added at 24 h post-seeding, and the plates were incubated for 3 days. Cells were subsequently lysed with Qiagen lysis buffer (Cat #1062731) to extract the RNA. HCV replicon RNA level was measured by real-time PCR using the RNA-to-CT kit from Applied Biosystem (Cat #4392656) and genotype-specific primers and probes. The amplicon was located within NS5B. […] (SEQ. ID NO. 2); the probe sequence was FAM-labeled […] (SEQ. ID NO. 3).
The real-time RT-PCR reactions were run on ABI PRISM 7900HT or Viia7 Sequence Detection System using the following program: 48° C. for 30 minutes, 95° C. for 10 minutes, 40 cycles of 95° C. for 15 sec, 60° C. for 1 minutes.
Data for replicons 1A, 1AY93H and 2B were obtained using Replicon Assay A and data for replicons 1AQ30D and 1B were obtained using Replicon Assay B.

HCV replicon 2B = details: Replicon Assay A
Summary of the method: (§1)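 Three-day treatment of replicon cells (2000/well, 5% FBS, 0.5% DMSO), followed by TaqMan RT-PCR of replicon RNA with cyclophilin as internal control.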

HCV replicon 1AY93H = details: Replicon Assay A
Summary of the method: as §1

HCV replicon 1A = details: Replicon Assay A
Summary of the method: as §1

[1] = read-out: 2B IC50, HCV replicon 2B
[2] = read-out: 1A Y93H IC50, HCV replicon 1A Y93H
[3] = Hepatitis C virus, HCV replicon 1B
[4] = read-out: 1A Y93H IC50, replicon 1AY93H
[5] = Hepatitis C virus, read-out: 2B IC50 (nM), replicon 2B
[6] = Hepatitis C virus, read-out: 1A Y93H IC50 (nM), replicon 1AY93H
[7] = Hepatitis C virus, read-out: 1A Y93H IC50, HCV replicon 1A Y93H
[8] = Hepatitis C virus, HCV replicon 1A
[9] = Hepatitis C virus, read-out: 2B IC50, HCV replicon 2B

Structure (SMILES) | IC50 (HCV replicon 1A; HCV replicon 1A) [nM] | IC50 (HCV replicon 1AY93H; [2]) [nM] | IC50 (HCV replicon 2B; read-out: 2B IC50, replicon 2B) [nM] | IC50 (HCV replicon 1AY93H; [4]) [nM] | IC50 (HCV replicon 1A; replicon 1A) [nM] | IC50 (HCV replicon 1B; Hepatitis C virus, replicon 1B) [nM] | further results
COC(=O)N[C@H](C(=O)N1CCC[C@H]1c1ncc(-c2cc(F)c3c(c2)OC(c2ccc(C4(C)CC4)s2)n2c-3cc3cc(-c4cnc([C@@H]5CCCN5C(=O)[C@@H](NC(=O)OC)C(C)C)[nH]4)ccc32)[nH]1)C(C)C (single isomer, unassigned) [Compound 835] | 0.0035 |  |  |  |  |  | IC50 (HCV replicon 1B; HCV replicon 1B): 0.0014 nM; IC50 (HCV replicon 2B; HCV replicon 2B, read-out: 2B IC50): 1.31 nM; IC50 (HCV replicon 1AY93H; HCV replicon 1A Y93H, read-out: 1A Y93H IC50): 0.943 nM
COC(=O)N[C@H](C(=O)N1CCC[C@H]1c1ncc(-c2ccc3c(c2)OC(c2ccc(C4CC4)s2)n2c-3c(F)c3cc(-c4cnc([C@@H]5CCCN5C(=O)[C@@H](NC(=O)OC)C(C)C)[nH]4)ccc32)[nH]1)C(C)C (single isomer, unassigned) [Compound 606] | 0.0026 | 0.161 |  |  |  |  | IC50 (HCV replicon 1B; HCV replicon 1B): 0.0032 nM; IC50 (HCV replicon 2B; [1]): 0.286 nM
COC(=O)N[C@H](C(=O)N1CCC[C@H]1c1ncc(-c2ccc3c(c2)OC(c2ccc(C4CC4)s2)n2c-3cc3cc(-c4cnc([C@@H]5CCCN5C(=O)[C@@H](NC(=O)OC)C(C)C)[nH]4)ccc32)[nH]1)C(C)C (single isomer, unassigned) [Compound 704] | 0.0029 | 0.45 |  |  |  |  | IC50 (HCV replicon 1B; [3]): 0.0029 nM; IC50 (HCV replicon 2B; [1]): 1.07 nM
COC(=O)N[C@H](C(=O)N1C2CC2C[C@H]1c1ncc(-c2cc(F)c3c(c2)OC(c2ccc(C4CC4)s2)n2c-3cc3cc(-c4cnc([C@@H]5CCCN5C(=O)[C@@H](NC(=O)OC)C5C[C@@H](C)O[C@@H](C)C5)[nH]4)ccc32)[nH]1)C(C)C (single isomer, unassigned) [Compound 558] | 0.0535 | 0.362 |  |  |  |  | IC50 (HCV replicon 1B; HCV replicon 1B): 0.0358 nM; IC50 (HCV replicon 2B; [1]): 1.22 nM
COC(=O)NC(C(=O)N1CCC[C@H]1c1ncc(-c2ccc3c(c2)cc2n3C(c3ccc(C4CC4)s3)Oc3cc(-c4cnc([C@@H]5CCCN5C(=O)[C@@H](NC(=O)OC)C(C)C)[nH]4)cc(F)c3-2)[nH]1)C1CN(C(=O)OC)C1 (single isomer, unassigned) [Compound 228] |  |  | 0.47 | 0.5 | 0.002 |  | IC50 (HCV replicon 1B; replicon 1B): 0.0038 nM
COC(=O)NC(C(=O)N1CCC[C@H]1c1ncc(-c2ccc3c(c2)cc2n3C(c3ccc(C4CC4)s3)Oc3cc(-c4cnc([C@@H]5C[C@@H](F)CN5C(=O)[C@@H](NC(=O)OC)C(C)C)[nH]4)cc(F)c3-2)[nH]1)C(C)(C)F (single isomer, unassigned) [Compound 114] |  |  | 0.2 | 0.002 | 0.0013 | 0.0024 | 
CCOC(C)[C@H](NC(=O)OC)C(=O)N1CCC[C@H]1c1ncc(-c2cc(F)c3c(c2)OC(c2cc(C)c(C)s2)n2c-3cc3cc(-c4cnc([C@@H]5CCCN5C(=O)[C@@H](NC(=O)OC)C(C)C)[nH]4)ccc32)[nH]1 (single isomer, unassigned) [Compound 79] |  |  | 0.32 | 0.14 |  | 0.0034 | IC50 (HCV replicon 1A; Hepatitis C virus, replicon 1A): 0.0021 nM
CC[C@@H]1CC(C(NC(=O)OC)C(=O)N2CCC[C@H]2c2ncc(-c3ccc4c(c3)cc3n4C(c4ccc(C5CC5)s4)Oc4cc(-c5cnc([C@@H]6CCCN6C(=O)[C@@H](NC(=O)OC)C(C)C)[nH]5)cc(F)c4-3)[nH]2)C[C@H](CC)O1 (single isomer, unassigned) [Compound 289] |  |  | 5.64 | 1.24 | 0.0031 | 0.0042 | 
CCc1ccc(C2Oc3cc(-c4cnc([C@@H]5CCCN5C(=O)C(NC(=O)OC)C5CCOC(C)(C)C5)[nH]4)cc(F)c3-c3cc4cc(-c5cnc([C@@H]6CCCN6C(=O)C(NC(=O)OC)C6CCOC(C)(C)C6)[nH]5)ccc4n32)s1 (single isomer, unassigned) [Compound 291] |  |  | 0.028 | 0.28 | 0.0024 | 0.0023 | 
COC(=O)N[C@H](C(=O)N1CCC[C@H]1c1ncc(-c2cc(F)c3c(c2)OC(c2ccc(C(C)(C)O)s2)n2c-3cc3cc(-c4cnc([C@@H]5CCCN5C(=O)[C@@H](NC(=O)OC)C(C)C)[nH]4)ccc32)[nH]1)C(C)C (single isomer, unassigned) [Compound 83] |  |  | 0.8 | 0.42 |  | 0.0031 | IC50 (HCV replicon 1A; Hepatitis C virus, replicon 1A): 0.0032 nM
COC(=O)NC(C(=O)N1CCC[C@H]1c1ncc(-c2cc(F)c3c(c2)OC(c2ccc(C4CC4)s2)n2c-3cc3cc(-c4cnc([C@@H]5C[C@H]6C[C@H]6N5C(=O)[C@@H](NC(=O)OC)C(C)C)[nH]4)ccc32)[nH]1)C(C)(C)F (some centres unmarked) [Compound 97] |  |  |  |  |  | 0.0024 | IC50 (HCV replicon 2B; [5]): 0.036 nM; IC50 (HCV replicon 1AY93H; [6]): 0.008 nM; IC50 (HCV replicon 1A; Hepatitis C virus, replicon 1A): 0.0011 nM
CCc1c2n(c3ccc(-c4cnc([C@@H]5CCCN5C(=O)[C@@H](NC(=O)OC)C(C)C)[nH]4)cc13)C(c1ccc(Cl)s1)Oc1cc(-c3cnc([C@@H]4CCCN4C(=O)[C@@H](NC(=O)OC)C(C)C)[nH]3)cc(F)c1-2 (some centres unmarked) [Compound 837] |  |  |  |  |  |  | IC50 (HCV replicon 1B; [3]): 0.0019 nM; IC50 (HCV replicon 1AY93H; [7]): 1.52 nM; IC50 (HCV replicon 1A; [8]): 0.0025 nM
COC(=O)N[C@H](C(=O)N1C[C@H](F)C[C@H]1c1cnc(-c2ccc3c(c2)cc2n3C(c3cc4ccccc4s3)Oc3cc(-c4cnc([C@@H]5C[C@@H](F)CN5C(=O)[C@@H](NC(=O)OC)C(C)C)[nH]4)ccc3-2)[nH]1)C(C)C (single isomer, unassigned) [Compound 805] | 0.01 | 0.01 |  |  |  |  | IC50 (HCV replicon 1B; [3]): 0.005 nM; IC50 (HCV replicon 2B; [9]): 21.5 nM
COC(=O)N[C@H](C(=O)N1CCC[C@H]1c1ncc(-c2cc(F)c3c(c2)OC(c2cc4c(s2)CCC4)n2c-3cc3cc(-c4cnc([C@@H]5CCCN5C(=O)[C@@H](NC(=O)OC)C(C)C)[nH]4)ccc32)[nH]1)C(C)C (single isomer, unassigned) [Compound 27] |  |  |  |  |  | 0.0014 | IC50 (HCV replicon 2B; [5]): 1.49 nM; IC50 (HCV replicon 1AY93H; [6]): 0.65 nM; IC50 (HCV replicon 1A; Hepatitis C virus, replicon 1A): 0.0016 nM
COC(=O)NC(C(=O)N1CCC[C@H]1c1ncc(-c2ccc3c(c2)cc2n3C(c3ccc(C4CC4)s3)Oc3cc(-c4cnc([C@@H]5CCCN5C(=O)[C@@H](NC(=O)OC)C(C)C)[nH]4)cc(F)c3-2)[nH]1)C(C)(C)F (single isomer, unassigned) [Compound 77] |  |  | 0.41 | 0.24 | 0.0018 |  | IC50 (HCV replicon 1B; replicon 1B): 0.0029 nM
COC(=O)NC(C(=O)N1CCC[C@H]1c1ncc(-c2cc(F)c3c(c2)OC(c2ccc(C4CC4)s2)n2c-3cc3cc(-c4cnc([C@@H]5CCCN5C(=O)[C@@H](NC(=O)OC)C5CCOCC5)[nH]4)ccc32)[nH]1)C(C)(C)F (some centres unmarked) [Compound 170] |  |  | 0.05 | 0.056 | 0.001 |  | IC50 (HCV replicon 1B; replicon 1B): 0.0033 nM
COC(=O)NC(C(=O)N1CCC[C@H]1c1ncc(-c2ccc3c(c2)cc2n3C(c3cc4c(s3)CCC4)Oc3cc(-c4cnc([C@@H]5CCCN5C(=O)[C@@H](NC(=O)OC)C(C)C)[nH]4)cc(C)c3-2)[nH]1)C1CCOC(C)(C)C1 (single isomer, unassigned) [Compound 852] |  | 1.32 |  |  |  |  | IC50 (HCV replicon 1B; [3]): 0.0025 nM; IC50 (HCV replicon 2B; [1]): 0.058 nM; IC50 (HCV replicon 1A; [8]): > 0.003 nM
COC(=O)N[C@H](C(=O)N1CCC[C@H]1c1ncc(-c2cc(F)c3c(c2)OC(c2ccc(F)s2)n2c-3cc3cc(-c4cnc([C@@H]5CCCN5C(=O)[C@@H](NC(=O)OC)C(C)C)[nH]4)ccc32)[nH]1)C(C)C (single isomer, unassigned) [Compound 14] |  |  | 0.23 | 0.059 | 0.002 |  | IC50 (HCV replicon 1B; replicon 1B): 0.0024 nM
COC(=O)NC(C(=O)N1CCC[C@H]1c1ncc(-c2ccc3c(c2)cc2n3C(c3ccc(CC4CC4)s3)Oc3cc(-c4cnc([C@@H]5CCCN5C(=O)[C@@H](NC(=O)OC)C(C)C)[nH]4)cc(F)c3-2)[nH]1)C1CCOC(C)(C)C1 (single isomer, unassigned) [Compound 407] | 0.0017 | 0.258 |  |  |  |  | IC50 (HCV replicon 1B; [3]): 0.0019 nM; IC50 (HCV replicon 2B; [1]): 0.26 nM
COC(=O)NC(C(=O)N1CCC[C@H]1c1ncc(-c2ccc3c(c2)cc2n3C(c3ccc(CC4CC4)s3)Oc3cc(-c4cnc([C@@H]5CCCN5C(=O)[C@@H](NC(=O)OC)C(C)C)[nH]4)cc(F)c3-2)[nH]1)C1CCOC(C)(C)C1 (single isomer, unassigned) [Compound 409] | 0.0017 | 0.746 |  |  |  |  | IC50 (HCV replicon 1B; HCV replicon 1B): 0.0025 nM; IC50 (HCV replicon 2B; [1]): 0.181 nM
COC(=O)N[C@H](C(=O)N1CCC[C@H]1c1ncc(-c2ccc3c(c2)O[C@@H](c2cc4c(s2)CCC4)n2c-3cc3cc(-c4cnc([C@@H]5CCCN5C(=O)[C@@H](NC(=O)OC)C(C)C)[nH]4)ccc32)[nH]1)C(C)C (single isomer, unassigned) [Compound 600] |  |  |  |  |  |  | IC50 (HCV replicon 1B; [3]): 0.186 nM; IC50 (HCV replicon 2B; [9]): 1.09 nM; IC50 (HCV replicon 1AY93H; [7]): 0.57 nM; IC50 (HCV replicon 1A; [8]): 0.0256 nM
